The subject of one series is Chang liver cell line. The series can be described thus: Cytotoxicity assay (Cytell Cell Imaging), normal cell line. The settings on record: Homo sapiens, read-out: IC50 Normal Cell Line Chang Liver. It is filed as cell-based.
Series [1] has as its system Escherichia coli MG1655 (pRecA-lux). The series can be described thus: Genotoxicity, bacterial lux-biosensor. The series is classed as cell-based. An excerpt: (§1) E. coli MG1655 (pRecA-lux) was used for the evaluation of the genotoxicity of the synthesized compounds. The biosensor with the PrecA promotor fixes the presence of the factors causing damage of DNA in a cell. The biosensor E. coli MG1655 (pSoxS-lux) was used for the evaluation of prooxidant activity. The biosensor with the PsoxS promoter fixes the production of superoxide anion and NO [75]. Bioluminescent strains were obtained by the transformation of E. coli MG1655 by hybrid plasmids pRecA-lux, pSoxS-lux. The gene cassette luxCDABE Photorhabdus luminescens under the control PrecA promoters was used in this biosensor. This plasmid was created on the basis of pBR322 and contained a selective marker of ampicillin resistance (Amp gene). The strains were kindly furnished by Manukhov I.V., Federal State Unitary Enterprise “GosNIIGenetika”).
(§2) The bacterial strains Acinetobacter calcoaceticus VKPM B-10353, E. coli MG1655 (pRecA-lux), and E. coli MG1655 (pSoxS-lux) were cultivated in Luria–Bertani (LB) medium under constant shaking to early exponential phase at 37 °C. Cells were used immediately for stress induction tests. One hundred micrograms of ampicillin per milliliter were added into LB medium at cultivation of E. coli MG1655 (pRecA-lux) and E. coli MG1655 (pSoxS-lux). Strain V. aquamarinus DSM 26054 was grown in LB medium supplemented with 3% NaCl.
(§3) Biosensors assay procedure. The detailed protocol of toxicity testing by means of a bacterial lux-biosensors is described in the article.
(§4) Calculation. The criterion of toxic influence was bioluminescence intensity change of the test object in the researched sample in comparison with the control sample.
(§5) The induction factor (I) was defined as the relation of luminescence intensity of a lux-biosensor suspension containing tested sample (Lc) to the luminescence intensity of a lux-biosensor control suspension (Lk): I = Lc/Lk.
If at significant differences from control induction factor values were ≤2, the detected genotoxic effect was evaluated as “weak”, if they were in the range from 2 to 10 as “medium”, and above 10 as “strong”. All the experiments were carried out three times independently.
(§6) Difference reliability of bioluminescence in experiment from control value was estimated by t-criterion with the help of Excel software. The conclusions about sample toxicity were made at p < 0.05.

The test system of the next series is M-Hela. Briefly: Cytotoxicity assay (Cytell Cell Imaging, DAPI/propidium iodide), cancer cell line. The series is classed as cell-based. To be noted: Homo sapiens, read-out: IC50 Cancer Cell Line M-Hela.
Series [2] has as its system Acinetobacter calcoaceticus VKPM B-10353. The series can be described thus: Biofilm formation, crystal violet assay. It is filed as cell-based. The settings on record: A. calcoaceticus VKPM B-10353, control = 100%. The method, then:
(§7) Bacterial strains and cultivation conditions. For the detection of biofilms, formation strains Vibrio aquamarinus DSM 26054 and Acinetobacter calcoaceticus VKPM B-10353 were used. These strains form biofilms, making them useful for studying biofilms.
as §2
(§8) The test compounds were dissolved in DMSO to the concentration of 1 × 10^−2 M. Then, they were diluted with ethanol. The control solutions were analogous dilutions of DMSO in ethanol. The tested compounds were also compared with the standard antibiotic azithromycin. Azithromycin was dissolved in DMSO to the concentration of 5 × 10^−3 M and then diluted with deionized water.
(§9) Test system for evaluation of biofilms production. To quantify the formation of biofilms, the crystal violet assay was used, with some modifications. The necessary concentrations of the test compounds were prepared as described above.
(§10) V. aquamarinus DSM 26054 was cultivated for 24 h in LB medium supplemented with 3% NaCl in the Innova 40R shaker incubator (New Brunswick Scientific, USA) at 25 °C and 200 rpm. A. calcoaceticus VKPM B-10353 was cultivated for 24 h in LB medium in the Innova 40R shaker incubator (New Brunswick Scientific, Enfield, CT, USA) at 30 °C and 200 rpm. Then, the suspensions of the daily culture of V. aquamarinus DSM 26054 and A. calcoaceticus VKPM B-10353 were diluted with LB medium supplemented with 3% NaCl to the density of 1 × 10^8 cells/mL.
(§11) The resulting suspension (180 μL) was added to the wells of a polystyrene microplate (Nuova Aptaca, Canelli, Italy). To some of the wells, 20 μL of the test substances at various concentrations were added. Since solvents used could also influence the biofilm formation, 20 μL of the appropriate solvent was added to the other part of the wells at same dilutions (control). Six replicates were done for each treatment and control. The microplate was covered with a lid and wrapped with Parafilm (Bemis Company, Inc., Oshkosh, WI, USA).
(§12) After incubation at 25 °C for 72 h, biofilms were stained. The contents in the wells were removed by means of a dispenser. The wells were then carefully washed three times with 250 μL of sterile saline. The microplates were shaken to remove all non-adherent bacteria. Biofilms were fixed with 200 μL of 96% ethanol for 15 min. After the microplates had dried in air, 200 μL of 0.5% crystal violet was introduced into the wells. After 10 min, the dye was removed. The excess dye was removed by washing with water three times. After the microplates were air-dried, the dye in the wells bound to biofilms was dissolved with 200 μL of 96% ethanol. The extraction level (absorption) of crystal violet by ethanol was measured after 60 minutes at a wavelength of 570 nm using a FLUOstar Omega microplate reader (BMG Labtech, Offenburg, Germany) in optical density units (OD570). The intensity of biofilm formation directly corresponds to the intensity of staining of the contents of the wells with the dye. Biofilm formation was determined by the difference between the mean OD readings obtained in the presence of compounds and the control.
(§13) Each experiment was performed in triplicate. The values were expressed as mean + SD. Student’s t-test was used to compare these values. Differences were considered statistically significant at p < 0.05.

For series [3], the system named is Vibrio aquamarinus DSM 26054. Briefly: Biofilm formation, crystal violet assay. The series is classed as cell-based. The settings on record: V. aquamarinus DSM 26054, control = 100%. The method, then: as §7, §2, §8, §9, §10, §11, §12, §13
The subject of series [4] is E. coli MG1655 (pSoxS-lux). Briefly: Prooxidant activity, bacterial lux-biosensor. It is filed as cell-based, Escherichia coli.
Description: as §1, §2, §3, §4, §5, §6

Values joined by “and” are separate entries in the source; they are usually repeats but may differ in a detail not shown here. Identical values can stand only once. Like-named read-outs stand apart in the source and are kept apart here. Marks after values point to notes of the source that are not given here.

For orientation: IC50 means the concentration needed to halve the response being measured. As a reminder, the melting point is the temperature of the solid-liquid transition.

In the case of `O=C(Nc1ccc(F)cc1)N1CCCC1c1ccc(Nc2c([N+](=O)[O-])c(Cl)cc3c2no[n+]3[O-])cc1O` (stereo not drawn) [6e, 6-Chloro-4-((4-(1-((4-fluorophenyl)carbamoyl)pyrrolidin-2-yl)-3-hydroxyphenyl)amino)-5-nitrobenzo[c][1,2,5]oxadiazole 1-oxide], the melting point was 175 to 177 °C (dec.). In addition, the IC50 in the series on Chang liver cell line (tested at 1–100 µM, three independent experiments) came to 48 ± 3 µM. In addition, the “detected genotoxic effect, class” value in series [1] (concentration range of 10^−9–10^−5 M) is listed as “medium (in the range from 2 to 10)”. Besides, in series [1] (with metabolic activation (+S9), 10^−5 M), the “Genotoxicity (induction factor, I)” value was determined as 1.24 ± 0.02. For the same compound, in series [1] (with metabolic activation (+S9), 10^−6 M), the “Genotoxicity (induction factor, I)” value is reported as 1.47 ± 0.04. The “Genotoxicity (induction factor, I)” value in series [1] (with metabolic activation (+S9), 10^−7 M) turned out to be 1.45 ± 0.02. Also, the “Genotoxicity (induction factor, I)” value in series [1] (with metabolic activation (+S9), 10^−8 M) is 1.35 ± 0.04. In series [1] (with metabolic activation (+S9), 10^−9 M), the “Genotoxicity (induction factor, I)” value stood at 1.43 ± 0.01. Also, in series [1] (without metabolic activation (-S9), 10^−5 M), the “Genotoxicity (induction factor, I)” value stood at 2.00 ± 0.02. Further, the “Genotoxicity (induction factor, I)” value in series [1] (without metabolic activation (-S9), 10^−6 M) is listed as 2.39 ± 0.02. In series [1] (without metabolic activation (-S9), 10^−7 M), the “Genotoxicity (induction factor, I)” value amounted to 2.46 ± 0.02. Besides, the “Genotoxicity (induction factor, I)” value in series [1] (without metabolic activation (-S9), 10^−8 M) was found to be 2.74 ± 0.04. The “Genotoxicity (induction factor, I)” value in series [1] (without metabolic activation (-S9), 10^−9 M) is 2.56 ± 0.10. Also, the concentration for half-maximal inhibition (IC50) with M-Hela (M-Hela, tested at 1–100 µM, three independent experiments) worked out at 26 ± 1.8 µM. For the same compound, the “Biofilm Formation” value in series [2] (1 × 10^−5 M) is 86.50%. For the same compound, the “Biofilm Formation” value in series [2] (1 × 10^−6 M) is recorded as 53.27 * %. The “Biofilm Formation” value in series [2] (1 × 10^−7 M) is on record as 55.40 * %. In addition, in series [2] (1 × 10^−8 M), the “Biofilm Formation” value is recorded as 47.66 * %. For the same compound, the “Biofilm Formation” value in series [2] (1 × 10^−9 M) is reported as 87.92 * %. For the same compound, the “Biofilm Formation” value in series [3] (1 × 10^−5 M) was 39.57 * %. Besides, in series [3] (1 × 10^−6 M), the “Biofilm Formation” value was 26.02 * %. For the same compound, in series [3] (1 × 10^−7 M), the “Biofilm Formation” value was 11.01% and 11.01 * %. Further, the “Biofilm Formation” value in series [3] (1 × 10^−8 M) was 17.96 * %. Moreover, the “Biofilm Formation” value in series [3] (1 × 10^−9 M) was found to be 67.29%. Moreover, the “Prooxidant activity (induction factor)” value in series [4] (10^−5 M) is listed as 0.84 ± 0.04. Also, the “Prooxidant activity (induction factor)” value in series [4] (10^−6 M) is reported as 1.34 ± 0.10. In series [4] (10^−7 M), the “Prooxidant activity (induction factor)” value is on record as 1.85 ± 0.15 and the “prooxidant response, in words” value is listed as “weak response”. The “Prooxidant activity (induction factor)” value in series [4] (10^−8 M) is given as 1.25 ± 0.28. Besides, the “Prooxidant activity (induction factor)” value in series [4] (10^−9 M) was 0.93 ± 0.03.

`CCCCCCNC(=O)N1CCCC1c1c(O)c2ccccc2oc1=O` (stereo not drawn) [8f, N-Hexyl-2-(4-hydroxy-2-oxo-2H-chromen-3-yl)pyrrolidine-1-carboxamide] registered a melting point of 124 to 125 °C. Moreover, in the series with Chang liver cell line, the IC50 was above 100 µM. In addition, the IC50 with M-Hela (M-HeLa) was above 100 µM.

Turning to `O=C(Nc1ccccc1)N1CCCC1c1c(O)c2ccccc2oc1=O` (stereo not drawn) [8b, 2-(4-Hydroxy-2-oxo-2H-chromen-3-yl)-N-phenylpyrrolidine-1-carboxamide], the melting point was 179 to 180 °C. Further, the IC50 in the series with Chang liver cell line is above 100 µM. The IC50 in the series with M-Hela (M-HeLa) is above 100 µM.

In the case of `COc1ccc(NC(=O)N2CCCC2c2cc3c(cc2O)OCO3)cc1` (stereo not drawn) [5c, 2-(6-Hydroxybenzo[d][1,3]dioxol-5-yl)-N-(4-methoxyphenyl)pyrrolidine-1-carboxamide], the melting point lay within 112 to 114 °C. In addition, the IC50 in the series on Chang liver cell line is above 100 µM. Also, the IC50 in the series on M-Hela (M-HeLa) is above 100 µM.

On to `Cc1cc(O)c(C2CCCN2C(=O)Nc2ccccc2)c(=O)o1` (stereo not drawn) [7b, 2-(4-Hydroxy-6-methyl-2-oxo-2H-pyran-3-yl)-N-phenylpyrrolidine-1-carboxamide], for which the melting point is 190 to 191 °C. Moreover, the IC50 in the series on Chang liver cell line is above 100 µM. Also, the half-inhibitory concentration (IC50) in the series on M-Hela (M-HeLa) was above 100 µM.

As for `Cc1cc(O)c(C2CCCN2C(=O)NC2CCCCC2)c(=O)o1` (stereo not drawn) [7g, N-Cyclohexyl-2-(4-hydroxy-6-methyl-2-oxo-2H-pyran-3-yl)pyrrolidine-1-carboxamide], the melting point was 184 to 185 °C. Besides, the half-inhibitory concentration (IC50) in the series with Chang liver cell line was above 100 µM. Further, the IC50 with M-Hela (M-HeLa) was above 100 µM.

In turn, `O=C(NC1CCCCC1)N1CCCC1c1cc2c(cc1O)OCO2` (stereo not drawn) [5g, N-Cyclohexyl-2-(6-hydroxybenzo[d][1,3]dioxol-5-yl)pyrrolidine-1-carboxamide] displayed a melting point of 159 to 160 °C. Further, the IC50 in the series on Chang liver cell line was above 100 µM. The IC50 in the series with M-Hela (M-HeLa) was above 100 µM.

Compound `COc1ccc(NC(=O)N2CCCC2c2c(O)c3ccccc3oc2=O)cc1` (stereo not drawn) [8c, 2-(4-Hydroxy-2-oxo-2H-chromen-3-yl)-N-(4-methoxyphenyl)pyrrolidine-1-carboxamide] registered a melting point of 152 to 153 °C. Further, in the series with Chang liver cell line, the IC50 is above 100 µM. In addition, the IC50 with M-Hela (M-HeLa) is above 100 µM.

Consider `NC(=O)N1CCCC1c1cc2c(cc1O)OCO2` (stereo not drawn) [5a, 2-(6-Hydroxybenzo[d][1,3]dioxol-5-yl)pyrrolidine-1-carboxamide], for which the melting point fell in the range of 206 to 207 °C. Moreover, the concentration for half-maximal inhibition (IC50) in the series on Chang liver cell line was above 100 µM. Moreover, the IC50 in the series with M-Hela (M-HeLa) was above 100 µM.

In the case of `CCCCCCNC(=O)N1CCCC1c1cc2c(cc1O)OCO2` (stereo not drawn) [5f, N-Hexyl-2-(6-hydroxybenzo[d][1,3]dioxol-5-yl)pyrrolidine-1-carboxamide], the melting point lay in the range of 91 to 93 °C. The half-maximal inhibitory concentration (IC50) in the series on Chang liver cell line was above 100 µM. Besides, the IC50 with M-Hela (M-HeLa) was above 100 µM.

Source of the values: publication PMC6749236, “Synthesis of Novel 2-(Het)arylpyrrolidine Derivatives and Evaluation of Their Anticancer and Anti-Biofilm Activity” (Molecules, 2019).
